Laboratory results as given in patent US4325946A, “Anthracycline glycosides, their preparation, use and compositions thereof” (Farmitalia Carlo Erba S.p.A., priority 1979, dated 1982).
Structures can show the parent of a compound that is named as a salt.

Key:
HeLa cells = experiment: Effect on HeLa cells cloning efficiency in vitro; type: cell-based; conditions: HeLa cells exposed 24 hours, then plated, colonies evaluated 5 days later; for IC50: Homo sapiens, read-out: ID50 (the source's name)
Experimental: (§1) The new compounds according to the invention were tested in HeLa cells in vitro (time of exposure to the drugs: 24 hours) and on P-388 ascitic leukemia in mice in comparison with daunorubicin (daunomycin) and doxorubicin (adriamycin).
Effect on HeLa Cells Cloning Efficiency In Vitro^(a)
^(a) HeLa cells were exposed to the test compounds for 24 hours, then
plated. The number of colonies was evaluated 5 days later.

P-388 ascitic leukemia = experiment: Activity on ascitic P-388 leukemia in mice; type: in vivo; conditions: for Toxic Deaths: macroscopic autoptic findings
Experimental: as §1
Activity on Ascitic P-388 Leukemia in Mice
^(a) Mice were treated i.p. on day 1 after tumor cell inoculation.
^(b) Median survival time of treated mice/median survival time of
^(c) Evaluated on the basis of macroscopic autoptic findings.
^(d) Longtime survival.

Question: Which results are given for COc1cccc2c1C(=O)c1c(O)c3c(c(O)c1C2=O)CC(O)(C(=O)CO)CC3OC1CC(N)C(C)(O)C(C)O1.Cl (stereo not shown) [I-B, 4'-C-methyl-doxorubicin]?
Answer: ID50 (HeLa cells): 18 ng/mL; T/C (median survival time of treated mice/control mice × 100) (P-388 ascitic leukemia; 6 mg/Kg i.p. on day 1): 186%; Toxic Deaths (P-388 ascitic leukemia; 6 mg/Kg i.p. on day 1): 0/10; T/C (median survival time of treated mice/control mice × 100) (P-388 ascitic leukemia; 7.7 mg/Kg i.p. on day 1): 172%; Toxic Deaths (P-388 ascitic leukemia; 7.7 mg/Kg i.p. on day 1): 0/10; LTS (longtime survival) (P-388 ascitic leukemia; 10 mg/Kg i.p. on day 1): 3/20; T/C (median survival time of treated mice/control mice × 100) (P-388 ascitic leukemia; 10 mg/Kg i.p. on day 1): 233%; Toxic Deaths (P-388 ascitic leukemia; 10 mg/Kg i.p. on day 1): 2/20

Question: What does the source list for COc1cccc2c1C(=O)c1c(O)c3c(c(O)c1C2=O)C[C@@](O)(C(=O)CO)C[C@@H]3O[C@H]1C[C@H](N)[C@H](O)[C@H](C)O1 [Doxorubicin . HCl, Doxorubicin, reference compound]?
Answer: IC50 (HeLa cells): 8.4 ng/mL; LTS (longtime survival) (P-388 ascitic leukemia; 6.6 mg/Kg i.p. on day 1): 2/30; T/C (median survival time of treated mice/control mice × 100) (P-388 ascitic leukemia; 6.6 mg/Kg i.p. on day 1): 193%; Toxic Deaths (P-388 ascitic leukemia; 6.6 mg/Kg i.p. on day 1): 0/30; LTS (longtime survival) (P-388 ascitic leukemia; 10 mg/Kg i.p. on day 1): 5/28; T/C (median survival time of treated mice/control mice × 100) (P-388 ascitic leukemia; 10 mg/Kg i.p. on day 1): 227%; Toxic Deaths (P-388 ascitic leukemia; 10 mg/Kg i.p. on day 1): 1/28

Question: How did the ID50 (HeLa cells) turn out when 4'-epi-4'-C-methyl-doxorubicin [I-D] was run?
Answer: 0.62 ng/mL

Question: And the “T/C (median survival time of treated mice/control mice × 100)” value (P-388 ascitic leukemia; 1 mg/Kg i.p. on day 1)?
Answer: 150%

Question: And the “Toxic Deaths” value (P-388 ascitic leukemia; 1 mg/Kg i.p. on day 1)?
Answer: 0/10

Question: And the “T/C (median survival time of treated mice/control mice × 100)” value (P-388 ascitic leukemia; 2 mg/Kg i.p. on day 1)?
Answer: 156%

Question: And the “Toxic Deaths” value (P-388 ascitic leukemia; 2 mg/Kg i.p. on day 1)?
Answer: 0/10

Question: 4'-C-methyl-daunorubicin [I-A] was tested. Which ID50 (HeLa cells) did it give?
Answer: 35 ng/mL

Question: What about the “T/C (median survival time of treated mice/control mice × 100)” value (P-388 ascitic leukemia; 10 mg/Kg i.p. on day 1) of the same compound?
Answer: 150%

Question: What about the “Toxic Deaths” value (P-388 ascitic leukemia; 10 mg/Kg i.p. on day 1) of the same compound?
Answer: 0/10

Question: And the “T/C (median survival time of treated mice/control mice × 100)” value (P-388 ascitic leukemia; 20 mg/Kg i.p. on day 1)?
Answer: 155%

Question: What about the “Toxic Deaths” value (P-388 ascitic leukemia; 20 mg/Kg i.p. on day 1) of the same compound?
Answer: 0/10

Question: Which results are given for 4'-epi-4'-C-methyl-daunorubicin [I-C]?
Answer: ID50 (HeLa cells): 2.8 ng/mL; T/C (median survival time of treated mice/control mice × 100) (P-388 ascitic leukemia; 0.29 mg/Kg i.p. on day 1): 140%; Toxic Deaths (P-388 ascitic leukemia; 0.29 mg/Kg i.p. on day 1): 0/10; T/C (median survival time of treated mice/control mice × 100) (P-388 ascitic leukemia; 0.44 mg/Kg i.p. on day 1): 163%; Toxic Deaths (P-388 ascitic leukemia; 0.44 mg/Kg i.p. on day 1): 0/10; T/C (median survival time of treated mice/control mice × 100) (P-388 ascitic leukemia; 0.66 mg/Kg i.p. on day 1): 158%; Toxic Deaths (P-388 ascitic leukemia; 0.66 mg/Kg i.p. on day 1): 1/20

Question: COc1cccc2c1C(=O)c1c(O)c3c(c(O)c1C2=O)C[C@@](O)(C(C)=O)C[C@@H]3O[C@H]1C[C@H](N)[C@H](O)[C@H](C)O1 [Daunorubicin . HCl, Daunorubicin, reference compound] was tested. Which IC50 (HeLa cells) did it give?
Answer: 9 ng/mL

Question: What about the “T/C (median survival time of treated mice/control mice × 100)” value (P-388 ascitic leukemia; 2.9 mg/Kg i.p. on day 1) of the same compound?
Answer: 175%

Question: And the “Toxic Deaths” value (P-388 ascitic leukemia; 2.9 mg/Kg i.p. on day 1)?
Answer: 0/40

Question: And the “T/C (median survival time of treated mice/control mice × 100)” value (P-388 ascitic leukemia; 4.4 mg/Kg i.p. on day 1)?
Answer: 180%

Question: What about the “Toxic Deaths” value (P-388 ascitic leukemia; 4.4 mg/Kg i.p. on day 1) of the same compound?
Answer: 3/39
